According to patent US20260184700A1, “PDK1 REGULATORY COMPOUND AND COMPOSITION CONTAINING THE SAME” (PROVIBIO CO., LTD., priority 2024, published 2026):

Experiments:
[1] = molecular target: T1, full-length (PDK1-FL) protein of human-derived PDK1 (Homo sapiens, UniProt O15530); experiment: Microscale Thermophoresis (MST) binding, full-length PDK1; conditions: Kd ratio
T1 construct: the full-length (PDK1-FL) protein of human-derived PDK1; inferred from the Ni-NTA purification; made in house; host or cells: Sf9 insect cells, baculovirus
T1 sequence (O15530 1-556): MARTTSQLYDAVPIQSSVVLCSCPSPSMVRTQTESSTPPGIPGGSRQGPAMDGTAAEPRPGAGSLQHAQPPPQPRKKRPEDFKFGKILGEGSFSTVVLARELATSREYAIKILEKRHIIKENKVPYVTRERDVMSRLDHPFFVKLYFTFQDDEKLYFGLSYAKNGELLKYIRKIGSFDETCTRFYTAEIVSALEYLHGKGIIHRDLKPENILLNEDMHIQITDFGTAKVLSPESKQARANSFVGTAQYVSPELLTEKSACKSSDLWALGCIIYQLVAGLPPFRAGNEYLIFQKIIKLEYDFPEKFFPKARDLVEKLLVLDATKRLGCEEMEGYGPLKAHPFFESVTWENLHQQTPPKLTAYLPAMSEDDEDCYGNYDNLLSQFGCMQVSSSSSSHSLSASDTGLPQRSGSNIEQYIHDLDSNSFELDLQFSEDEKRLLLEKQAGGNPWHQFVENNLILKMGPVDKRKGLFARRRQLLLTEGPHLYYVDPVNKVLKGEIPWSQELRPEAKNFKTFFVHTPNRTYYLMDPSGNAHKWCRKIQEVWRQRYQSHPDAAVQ
Method: Microscale Thermophoresis (MST) analysis was performed to quantitatively measure the binding affinity between PDK1 protein and substrate peptides (PDKTide) or the company-developed low-molecular-weight compound (GO88).
The target proteins were the full-length (PDK1-FL) protein of human-derived PDK1 and the Protein Kinase Domain (PKD) fragment, which were expressed using a baculovirus expression system in insect cell lines (Sf9).
The purity of the purified proteins was confirmed by SDS-PAGE and Coomassie Brilliant Blue staining.
The purified protein was labeled with a fluorescent label using the Monolith NT™ RED-NHS Protein Fluorescent Labeling Kit (NanoTemper).
Specifically, 20 μM of the protein was dissolved in PBS (pH 7.4) buffer, mixed with the fluorescent reagent, and reacted at room temperature under dark conditions for 30 minutes. The mixture was then buffered with MST analysis buffer (50 mM HEPES, 150 mM NaCl, 1 mM DTT, 0.05% Tween-20, pH 7.5). […]
The reaction samples were injected into an MST-specific capillary (NanoTemper) and analyzed using a Monolith NT.115 device (NanoTemper) under laser intensity conditions. […]
The measured data were analyzed using MO.Affinity Analysis software (NanoTemper), and the dissociation constant (Kd) was calculated from the binding curve.

[2] = tested on: HCT-116 colon cancer cell lines; experiment: Invasion Assay using Matrigel, HCT-116; type: cell-based, human; conditions: HCT-116, Matrigel invasion, 24 hours treatment
Method: To evaluate the metastasis inhibitory efficacy of the compounds of the present invention on HCT-116 colon cancer cell lines, an Invasion Assay using Matrigel was performed to assess the cells' invasion ability.
First, Matrigel was thawed on ice in RPMI-1640 medium without FBS, then diluted with DMEM at a ratio of 1:20.
The diluted Matrigel mixture was applied to the upper chamber at 100 μl per well, and 750 μl of RPMI-1640 without FBS was added to the lower chamber.
The plates were then incubated at 37° C. for 1 hour to allow the Matrigel to solidify.
After coating, the Matrigel mixture in the upper chamber was removed using a pipette, and the chamber was washed with RPMI without FBS.
Human-derived colorectal cancer cell line HCT-116, obtained from the Korean Cell Bank, was cultured in RPMI-1640 medium containing 10% FBS.
Following stabilization, the cells were harvested using Trypsin-EDTA treatment, centrifuged at 1,200 rpm for 3 minutes, the supernatant was removed, and the cells were resuspended in the same medium, the medium in the lower chamber was replaced with 750 μl of RPMI-1640 supplemented with 10% FBS, and the cells were seeded into the upper chamber at a density of 5×10^4 cells/well.
The cells were cultured for 24 hours after attachment, and then the compounds according to the present invention (G078, G085, G086, G088, G089, PBK-2024-010, PBK-2025-010, PBK-2025-013, PBK-2025-016) and the control substance DMSO were diluted and added to the upper chamber after removing the medium.
Additionally, the medium in the lower chamber was replaced with fresh RPMI-1640 containing FBS, and the culture was continued.
After an additional 24 hours, the medium was removed, and 1 ml of methanol was added for 10 minutes to fix the cells.
Subsequently, 1 ml of Hematoxylin was added and reacted for 5 minutes, followed by 1 ml of Eosin, which was reacted for 30 seconds. The sample was then washed with distilled water (DW).
After staining was complete, any remaining cells in the upper chamber were removed. Finally, the infiltrated cells were observed under a microscope, photographed, and the degree of infiltration was analyzed.

[3] = tested on: Human B Lymphocyte cell line, SU-DHL-8; experiment: Relative cell viability, CCK-8, SU-DHL-8; type: cell-based; conditions: 48 hours
Method: Human-derived B lymphoma cell line SU-DHL-8 (Cat. #CRL-2961) purchased from ATCC was cultured in RPMI-1640 medium containing 10% FBS, 100 U/mL penicillin, and 100 μg/mL streptomycin.
The cell culture medium was then harvested, centrifuged at 1,300 rpm for 5 minutes, and the supernatant was removed. The cells were resuspended in the same medium and dispensed into a 96-well plate (Costar 96-well cell culture plate, Corning) at 90 μL per well, resulting in the conditions specified in Table 5.
Then, 10 μL of CCK-8 was added to each well, and the plates were incubated again at 37° C. in a 5% CO2 incubator for 4 hours.
In other words, when the survival rate of untreated cells (DMSO) is set at 100%, the relative cell survival rate in each group treated with the drug at different concentrations is indicated.

Structure (SMILES) | binding affinity of full-length PDK1 compared to the PDK fragment [1] | number of infiltrated cells [2] | Relative cell viability (%) ([3]; SU-DHL-8, 1 μM) | Relative cell viability (%) ([3]; SU-DHL-8, 10 μM) | Relative cell viability (%) ([3]; SU-DHL-8, 30 μM) | Relative cell viability (%) ([3]; SU-DHL-8, 50 μM)
Nc1ncccc1C(=O)NCCCCCCCCCCCCN1CCNCC1 [Compound 14, 2-Amino-N-(12-(piperazin-1-yl)dodecyl)nicotinamide] | six times stronger binding affinity | – | – | – | – | –
CC1(C)CN(CCCCCCCCCCCCC(=O)Nc2nc(N)c3[nH]cnc3n2)CCO1 [Compound 11, 12-[4-(2,2-dimethylmorpholin-4-yl)]dodecyl-N-(6-aminopurine-2-yl)carboxamide] | – | reduction in the number of infiltrated cells | 7.63 | 6.09 | 4.82 | 3.29
